In patent US11584755B2 (IDEAYA BIOSCIENCES, INC., priority 2017, dated 2023):

Experiments:
Format in all cases: biochemical
[1] = biological target: hEXO1, Isoform1 (Homo sapiens (Human), UniProt Q9UQ84); assay: Enzymatic IC50 assay, FAM-labeled DNA oligomer substrate, fluorescence intensity (EXO1); settings: hEXO1 6 nM, substrate 30 nM, reaction time 60 minutes, 23° C.
Method in brief: (§1)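 FEN1, EXO1 or XPG was preincubated 15 min with compound, then the FAM-labelled DNA oligomer substrate was added in Tris-HCl pH 8.0 with 10 mM MgCl2 at 23° C. FEN1 was 70 pM with 100 nM substrate for 20 min, EXO1 6 nM with 30 nM for 60 min, and XPG 100 nM with 100 nM for 120 min. Reactions were EDTA-stopped and read by fluorescence intensity.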

[2] = biological target: hFEN1 (Homo sapiens (Human), UniProt P39748); assay: Enzymatic IC50 assay, FAM-labeled DNA oligomer substrate, fluorescence intensity (FEN1); settings: hFEN1 70 pM, substrate 100 nM, reaction time 20 minutes, 23° C.
Method in brief: as §1

[3] = biological target: hXPG (Homo sapiens (Human), UniProt P28715); assay: Enzymatic IC50 assay, FAM-labeled DNA oligomer substrate, fluorescence intensity (XPG); settings: hXPG 100 nM, substrate 100 nM, reaction time 120 minutes, 23° C.
Method in brief: as §1

Sequence of hEXO1, Isoform1 (Q9UQ84 whole entry, canonical isoform): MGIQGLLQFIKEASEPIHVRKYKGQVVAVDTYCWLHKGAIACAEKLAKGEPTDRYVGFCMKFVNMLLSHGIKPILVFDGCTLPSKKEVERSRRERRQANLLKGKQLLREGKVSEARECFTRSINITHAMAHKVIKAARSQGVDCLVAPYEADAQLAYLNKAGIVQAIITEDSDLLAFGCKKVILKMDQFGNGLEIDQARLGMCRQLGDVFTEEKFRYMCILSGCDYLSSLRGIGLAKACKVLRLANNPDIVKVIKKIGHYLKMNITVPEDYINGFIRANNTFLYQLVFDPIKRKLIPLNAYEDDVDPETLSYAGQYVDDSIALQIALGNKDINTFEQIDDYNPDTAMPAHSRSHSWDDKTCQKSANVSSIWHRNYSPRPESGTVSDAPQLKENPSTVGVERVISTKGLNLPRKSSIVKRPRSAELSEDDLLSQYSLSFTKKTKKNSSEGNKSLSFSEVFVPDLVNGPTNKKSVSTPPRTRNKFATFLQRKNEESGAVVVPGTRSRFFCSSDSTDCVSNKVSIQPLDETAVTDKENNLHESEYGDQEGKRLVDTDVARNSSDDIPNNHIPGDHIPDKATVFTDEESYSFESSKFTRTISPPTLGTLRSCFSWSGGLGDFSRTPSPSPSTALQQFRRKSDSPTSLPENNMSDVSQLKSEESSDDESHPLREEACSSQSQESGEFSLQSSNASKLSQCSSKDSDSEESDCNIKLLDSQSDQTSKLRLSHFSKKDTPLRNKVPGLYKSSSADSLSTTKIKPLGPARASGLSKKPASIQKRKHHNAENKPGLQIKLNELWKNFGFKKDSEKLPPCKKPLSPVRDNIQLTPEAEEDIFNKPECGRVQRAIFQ
Sequence of hXPG (P28715 whole entry): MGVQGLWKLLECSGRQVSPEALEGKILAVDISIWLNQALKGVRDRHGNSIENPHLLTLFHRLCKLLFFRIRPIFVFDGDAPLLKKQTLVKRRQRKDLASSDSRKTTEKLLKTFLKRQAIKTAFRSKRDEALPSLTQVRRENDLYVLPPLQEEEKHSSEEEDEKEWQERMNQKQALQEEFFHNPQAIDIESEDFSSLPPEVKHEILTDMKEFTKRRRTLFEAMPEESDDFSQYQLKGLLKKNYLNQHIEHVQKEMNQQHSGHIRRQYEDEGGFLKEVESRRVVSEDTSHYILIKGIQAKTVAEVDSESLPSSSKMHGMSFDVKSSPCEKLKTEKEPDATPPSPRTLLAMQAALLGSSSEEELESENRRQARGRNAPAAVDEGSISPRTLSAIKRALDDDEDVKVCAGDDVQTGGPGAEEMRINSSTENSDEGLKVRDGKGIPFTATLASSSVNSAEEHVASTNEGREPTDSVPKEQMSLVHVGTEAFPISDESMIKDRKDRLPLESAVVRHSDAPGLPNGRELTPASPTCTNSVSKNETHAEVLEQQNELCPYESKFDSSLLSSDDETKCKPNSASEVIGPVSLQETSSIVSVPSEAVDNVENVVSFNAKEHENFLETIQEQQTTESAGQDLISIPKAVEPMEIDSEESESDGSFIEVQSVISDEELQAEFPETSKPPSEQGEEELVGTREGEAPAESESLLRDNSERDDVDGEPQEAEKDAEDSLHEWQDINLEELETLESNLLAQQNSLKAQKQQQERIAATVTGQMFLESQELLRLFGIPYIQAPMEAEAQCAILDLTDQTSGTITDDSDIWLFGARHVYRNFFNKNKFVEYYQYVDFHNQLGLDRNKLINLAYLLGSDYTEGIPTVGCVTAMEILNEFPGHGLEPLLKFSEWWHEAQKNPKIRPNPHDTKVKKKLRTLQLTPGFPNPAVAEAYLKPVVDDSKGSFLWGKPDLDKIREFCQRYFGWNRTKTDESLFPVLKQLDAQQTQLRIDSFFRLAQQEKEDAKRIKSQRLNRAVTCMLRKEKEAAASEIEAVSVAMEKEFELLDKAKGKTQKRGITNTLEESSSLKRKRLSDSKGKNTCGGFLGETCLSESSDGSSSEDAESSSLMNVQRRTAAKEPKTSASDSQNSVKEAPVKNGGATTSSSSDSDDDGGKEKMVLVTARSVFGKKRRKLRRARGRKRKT
Sequence of hFEN1 (P39748 whole entry): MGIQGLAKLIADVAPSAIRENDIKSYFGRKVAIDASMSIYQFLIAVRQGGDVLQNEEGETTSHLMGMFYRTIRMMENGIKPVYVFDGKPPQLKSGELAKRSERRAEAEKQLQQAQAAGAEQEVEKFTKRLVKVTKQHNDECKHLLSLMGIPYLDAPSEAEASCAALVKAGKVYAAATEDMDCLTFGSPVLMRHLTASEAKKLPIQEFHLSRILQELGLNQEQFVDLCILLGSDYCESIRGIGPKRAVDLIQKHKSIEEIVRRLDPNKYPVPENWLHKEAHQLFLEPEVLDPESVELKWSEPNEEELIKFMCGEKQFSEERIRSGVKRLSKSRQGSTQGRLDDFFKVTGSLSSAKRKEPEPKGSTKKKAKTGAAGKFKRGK

Compound	IC50 [1]	IC50 [2]	IC50 [3]
O=C(O)c1c(O)c(=O)n(Cc2cnn(Cc3cn4ccncc4n3)c2)c2ccsc12 [Example 125, 6-hydroxy-4-{[1-(imidazo[1,2-a]pyrazin-2-ylmethyl)-1H-pyrazol-4-yl]methyl}-5-oxo-4,5-dihydrothieno[3,2-b]pyridine-7-carboxylic acid]	0.75 to 2.25 µM	< 0.2 µM	2.25 to 10 µM
O=C(O)c1c(O)c(=O)n(Cc2cnn(Cc3cnc4ccccn34)c2)c2ccsc12 [Example 144, 6-hydroxy-4-{[1-(imidazo[1,2-a]pyridin-3-ylmethyl)-1H-pyrazol-4-yl]methyl}-5-oxo-4,5-dihydrothieno[3,2-b]pyridine-7-carboxylic acid]	2.25 to 10 µM	< 0.2 µM	> 10 µM
O=C(O)c1c(O)c(=O)n(Cc2cnn(CC(=O)N3CCOCC3)c2)c2ccsc12 [Example 156]	2.25 to 10 µM	< 0.2 µM	2.25 to 10 µM
